From the NIST ThermoML archive (doi:10.1021/je900596d)
Numbers after ± are expanded uncertainties.

Settings: for vapor or sublimation pressure: Liquid, Closed cell (Static) method; for mass density: 263.41 K, Fluid (supercritical or subcritical phases), Vibrating tube method

FC(F)=C(F)C(F)(F)F [hexafluoropropene]
Settings | mass density [kg/m3] | vapor or sublimation pressure [kPa]
1.9 kPa | 0.11 ± 0.03 | –
2.4 kPa | 0.12 ± 0.03 | –
2.9 kPa | 0.15 ± 0.03 | –
3.5 kPa | 0.21 ± 0.03 | –
4.3 kPa | 0.25 ± 0.03 | –
5 kPa | 0.26 ± 0.03 | –
5.7 kPa | 0.35 ± 0.03 | –
6.3 kPa | 0.39 ± 0.03 | –
7.1 kPa | 0.47 ± 0.03 | –
7.8 kPa | 0.48 ± 0.03 | –
8.5 kPa | 0.55 ± 0.03 | –
9.3 kPa | 0.61 ± 0.03 | –
10 kPa | 0.66 ± 0.03 | –
10.7 kPa | 0.71 ± 0.03 | –
11.4 kPa | 0.79 ± 0.03 | –
12.1 kPa | 0.8 ± 0.03 | –
12.9 kPa | 0.87 ± 0.03 | –
13.6 kPa | 0.9 ± 0.03 | –
14.4 kPa | 0.96 ± 0.03 | –
15 kPa | 1 ± 0.03 | –
15.8 kPa | 1.02 ± 0.03 | –
16.5 kPa | 1.08 ± 0.03 | –
17.1 kPa | 1.17 ± 0.03 | –
17.9 kPa | 1.18 ± 0.03 | –
18.6 kPa | 1.25 ± 0.03 | –
20 kPa | 1.33 ± 0.03 | –
21.5 kPa | 1.4 ± 0.03 | –
22.9 kPa | 1.53 ± 0.03 | –
24.3 kPa | 1.63 ± 0.03 | –
25.8 kPa | 1.75 ± 0.03 | –
27.2 kPa | 1.83 ± 0.03 | –
28.6 kPa | 1.89 ± 0.03 | –
30 kPa | 2.05 ± 0.03 | –
31.4 kPa | 2.13 ± 0.03 | –
32.8 kPa | 2.25 ± 0.03 | –
34.2 kPa | 2.33 ± 0.03 | –
35.5 kPa | 2.43 ± 0.03 | –
36.3 kPa | 2.5 ± 0.03 | –
37.7 kPa | 2.61 ± 0.03 | –
39 kPa | 2.7 ± 0.03 | –
40.5 kPa | 2.77 ± 0.03 | –
41.9 kPa | 2.87 ± 0.03 | –
43.2 kPa | 2.95 ± 0.03 | –
44.5 kPa | 3.08 ± 0.03 | –
45.3 kPa | 3.09 ± 0.03 | –
46.6 kPa | 3.21 ± 0.03 | –
48 kPa | 3.31 ± 0.03 | –
49.4 kPa | 3.4 ± 0.03 | –
50.7 kPa | 3.48 ± 0.03 | –
52.1 kPa | 3.59 ± 0.03 | –
53.4 kPa | 3.66 ± 0.03 | –
54.7 kPa | 3.8 ± 0.03 | –
56.1 kPa | 3.85 ± 0.03 | –
57.5 kPa | 3.97 ± 0.03 | –
58.8 kPa | 4.06 ± 0.03 | –
60.1 kPa | 4.18 ± 0.03 | –
61.4 kPa | 4.28 ± 0.03 | –
62.8 kPa | 4.33 ± 0.03 | –
64 kPa | 4.44 ± 0.03 | –
65.4 kPa | 4.56 ± 0.03 | –
66.7 kPa | 4.62 ± 0.03 | –
68 kPa | 4.73 ± 0.03 | –
69.3 kPa | 4.82 ± 0.03 | –
253.26 K | – | 149.7 ± 1.1
258.26 K | – | 184.1 ± 1.1
263.16 K | – | 224.5 ± 1.1
